Results published in patent US9266857B2, “Bicyclic AZA compounds as muscarinic M1 receptor agonists” (Heptares Therapeutics Limited, priority 2012, dated 2016).
Where two headings read alike, the source gives them in different places.

How the values were obtained:
Assay type in all cases: cell-based
[1] = target: T1, human muscarinic M2 receptor (Homo sapiens, UniProt P08172); experiment: Alphascreen Surefire phospho-ERK1/2 functional assay, M2; conditions: for EC50: CHO cells stably expressing human M2, phospho-ERK1/2, read-out: pEC50 M2 (converted); for Emax: CHO, read-out: % Emax cf. ACh, M2
T1 construct: expressed in transfected cells
T1 sequence (P08172 1-466): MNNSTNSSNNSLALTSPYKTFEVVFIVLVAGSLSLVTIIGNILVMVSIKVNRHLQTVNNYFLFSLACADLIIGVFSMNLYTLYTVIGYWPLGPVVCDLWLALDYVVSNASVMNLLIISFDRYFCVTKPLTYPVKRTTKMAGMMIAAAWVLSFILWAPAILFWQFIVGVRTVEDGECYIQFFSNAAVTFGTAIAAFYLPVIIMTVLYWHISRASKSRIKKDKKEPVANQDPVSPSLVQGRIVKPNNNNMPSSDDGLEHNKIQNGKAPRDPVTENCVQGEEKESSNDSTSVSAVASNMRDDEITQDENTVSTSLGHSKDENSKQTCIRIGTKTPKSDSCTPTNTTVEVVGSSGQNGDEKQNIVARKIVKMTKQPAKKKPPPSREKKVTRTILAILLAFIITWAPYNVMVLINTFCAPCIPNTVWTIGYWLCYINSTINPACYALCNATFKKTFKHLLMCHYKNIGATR
Method: (§1) ERK1/2 phosphorylation is a downstream consequence of both Gq/11 and Gi/o protein coupled receptor activation, making it highly suitable for the assessment of M1, M3 (Gq/11 coupled) and M2, M4 receptors (Gi/o coupled), rather than using different assay formats for different receptor subtypes. CHO cells stably expressing the human muscarinic M1, M2, M3 or M4 receptor were plated (25K/well) onto 96-well tissue culture plates in MEM-alpha+10% dialysed FBS. Once adhered, cells were serum-starved overnight. Agonist stimulation was performed by the addition of 5 μL agonist to the cells for 5 min (37° C.). Media was removed and 50 μL of lysis buffer added. After 15 min, a 4 μL sample was transferred to 384-well plate and 7 μL of detection mixture added. Plates were incubated for 2 h with gentle agitation in the dark and then read on a PHERAstar plate reader.
(§2) pEC50 and Emax figures were calculated from the resulting data for each receptor subtype.

[2] = target: T2, human muscarinic M4 receptor (Homo sapiens, UniProt P08173); experiment: Alphascreen Surefire phospho-ERK1/2 functional assay, M4; conditions: for EC50: CHO cells stably expressing human M4, phospho-ERK1/2, read-out: pEC50 M4 (converted); for Emax: CHO
T2 construct: expressed in transfected cells
T2 sequence (P08173 1-479): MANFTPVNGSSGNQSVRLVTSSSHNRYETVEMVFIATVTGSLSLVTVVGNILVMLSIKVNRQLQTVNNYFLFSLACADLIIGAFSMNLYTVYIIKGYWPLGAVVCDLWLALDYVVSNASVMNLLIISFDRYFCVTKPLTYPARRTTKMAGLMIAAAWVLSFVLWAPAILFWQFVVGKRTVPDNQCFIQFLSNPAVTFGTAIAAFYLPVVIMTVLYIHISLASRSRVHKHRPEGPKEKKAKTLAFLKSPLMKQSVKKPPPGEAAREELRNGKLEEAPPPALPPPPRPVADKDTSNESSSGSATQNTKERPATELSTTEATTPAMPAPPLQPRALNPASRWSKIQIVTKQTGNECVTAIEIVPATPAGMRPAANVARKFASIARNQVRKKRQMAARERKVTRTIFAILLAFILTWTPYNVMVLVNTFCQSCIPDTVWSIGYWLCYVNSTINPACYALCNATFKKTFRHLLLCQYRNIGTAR
Method: as §1, §2

[3] = target: T3, human muscarinic M1 receptor (Homo sapiens, UniProt P11229); experiment: Alphascreen Surefire phospho-ERK1/2 functional assay, M1; conditions: for EC50: CHO cells stably expressing human M1, phospho-ERK1/2, read-out: pEC50 M1 (converted); for Emax: CHO
T3 construct: expressed in transfected cells
T3 sequence (P11229 1-460): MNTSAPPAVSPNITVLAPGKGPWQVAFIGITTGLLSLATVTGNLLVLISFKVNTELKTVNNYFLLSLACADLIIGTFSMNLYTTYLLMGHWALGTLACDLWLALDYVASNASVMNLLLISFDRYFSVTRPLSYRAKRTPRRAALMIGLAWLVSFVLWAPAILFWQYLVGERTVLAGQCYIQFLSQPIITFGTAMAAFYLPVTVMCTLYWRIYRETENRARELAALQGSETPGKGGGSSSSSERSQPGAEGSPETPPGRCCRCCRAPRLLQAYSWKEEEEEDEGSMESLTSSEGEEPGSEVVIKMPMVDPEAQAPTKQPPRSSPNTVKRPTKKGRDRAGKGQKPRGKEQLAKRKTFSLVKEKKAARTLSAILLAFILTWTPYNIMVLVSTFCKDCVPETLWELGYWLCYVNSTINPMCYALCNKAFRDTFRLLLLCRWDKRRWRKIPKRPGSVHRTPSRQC
Method: as §1, §2

[4] = target: T4, human muscarinic M3 receptor (Homo sapiens, UniProt P20309); experiment: Alphascreen Surefire phospho-ERK1/2 functional assay, M3; conditions: for EC50: CHO cells stably expressing human M3, phospho-ERK1/2, read-out: pEC50 M3 (converted); for Emax: CHO, read-out: % Emax cf. ACh, M3
T4 construct: expressed in transfected cells
T4 sequence (P20309 whole entry): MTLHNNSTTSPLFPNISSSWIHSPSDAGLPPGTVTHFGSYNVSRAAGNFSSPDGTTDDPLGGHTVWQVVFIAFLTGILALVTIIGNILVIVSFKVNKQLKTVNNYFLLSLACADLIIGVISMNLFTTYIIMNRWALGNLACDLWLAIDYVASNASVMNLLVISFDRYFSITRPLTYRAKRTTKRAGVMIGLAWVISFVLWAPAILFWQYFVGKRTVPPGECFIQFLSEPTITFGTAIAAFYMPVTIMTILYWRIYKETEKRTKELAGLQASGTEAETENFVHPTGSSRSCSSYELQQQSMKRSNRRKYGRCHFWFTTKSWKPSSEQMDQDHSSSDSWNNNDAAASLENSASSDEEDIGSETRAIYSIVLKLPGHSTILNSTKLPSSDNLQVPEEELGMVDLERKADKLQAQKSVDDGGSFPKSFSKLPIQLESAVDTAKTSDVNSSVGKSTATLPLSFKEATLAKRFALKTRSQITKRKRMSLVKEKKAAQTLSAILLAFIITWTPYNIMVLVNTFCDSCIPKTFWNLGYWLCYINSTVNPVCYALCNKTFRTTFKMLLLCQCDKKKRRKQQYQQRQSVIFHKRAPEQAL
Method: as §1, §2

[5] = read-out: % Emax cf. ACh, M4, CHO cells stably expressing human M4, relative to ACh
[6] = read-out: % Emax cf. ACh, M1, CHO cells stably expressing human M1, relative to ACh

Compound	Emax ([2]; read-out: % Emax cf. ACh, M4) [%]	Emax ([3]; read-out: % Emax cf. ACh, M1) [%]	EC50 [1] [nM]	Emax [1] [%]	EC50 [2] [nM]	Emax [2, 5] [%]	EC50 [3] [nM]	Emax [3, 6] [%]	EC50 [4] [nM]	Emax [4] [%]
CC#CCOC(=O)N1C2CCC1CC(N1CCC(C(=O)NC3(C)CCC3)CC1)C2 (single isomer, unassigned) [Example 3 - Isomer 2, but-2-yn-1-yl 3-{4-[(1-methylcyclobutyl)carbamoyl]piperidin-1-yl}-8-azabicyclo[3.2.1]octane-8-carboxylate]			> 20000	10	851	65	363	109	> 20000	2
C#CCOC(=O)N1C2CCC1CC(N1CCC(C(=O)NC3(C)CCC3)CC1)C2 (single isomer, unassigned) [Example 2 - Isomer 1, prop-2-yn-1-yl 3-{4-[(1-methylcyclobutyl)carbamoyl]piperidin-1-yl}-8-azabicyclo[3.2.1]octane-8-carboxylate]			> 20000	14	> 20000	11	331	94	> 20000	7
CCOC(=O)N1[C@@H]2CCC[C@H]1CC(N1CCC(C(=O)NC3(C)CCC3)CC1)C2 (mixture of isomers) [Example 6 - mixture of diastereomers, ethyl 3-{4-[(1-methylcyclobutyl)carbamoyl]piperidin-1-yl}-9-azabicyclo[3.3.1]nonane-9-carboxylate]			> 20000	13	468	54	43.7	151	> 20000	5
CCOC(=O)N1CCC2(CC(N3CCC(C(=O)NC4(C)CCC4)CC3)C2)C1 (mixture of isomers) [Example 9 - mixture of diastereomers, ethyl 2-{4-[(1-methylcyclobutyl)carbamoyl]piperidin-1-yl}-6-azaspiro[3.4]octane-6-carboxylate]	66	142	> 20000	6	380		51.3		> 20000	5

Further lines, with some results ahead:

Emax ([2]; read-out: % Emax cf. ACh, M4) [%]	Emax ([3]; read-out: % Emax cf. ACh, M1) [%]	Compound	EC50 [1] [nM]	Emax [1] [%]	EC50 [2] [nM]	Emax [2, 5] [%]	EC50 [3] [nM]	Emax [3, 6] [%]	EC50 [4] [nM]	Emax [4] [%]
49	141	CCOC(=O)N1CC2(CCC(N3CCC(C(=O)NC4(C)CCC4)CC3)C2)C1 (racemic) [Example 12 - racemic, ethyl 6-{4-[(1-methylcyclobutyl)carbamoyl]piperidin-1-yl}-2-azaspiro[3.4]octane-2-carboxylate]	> 20000	8	53.7		35.5		> 20000	78
83	108	[2H]C([2H])([2H])COC(=O)N1CCC2(CC(N3CCC(C(=O)NC4(C)CCC4)CC3)C2)C1 (single isomer, unassigned) [Example 25 - Isomer 2, (2,2,2-trideutero)ethyl 2-{4-[(1-methylcyclobutyl)carbamoyl]piperidin-1-yl}-6-azaspiro[3.4]octane-6-carboxylate]	> 20000	23	174		53.7		> 20000	17
42	93	CC#CCOC(=O)N1CCC2(CC(N3CCC(C(=O)NC4(C)CCC4)CC3)C2)C1 (mixture of isomers) [Example 10 - mixture of diastereomers, but-2-yn-1-yl 2-{4-[(1-methylcyclobutyl)carbamoyl]piperidin-1-yl}-6-azaspiro[3.4]octane-6-carboxylate]	> 20000	10	339		155		> 20000	3
81	127	CCOC(=O)N1CC2CC(N3CCC(C(=O)NC4(C)CCC4)CC3)CC1C2 (mixture of isomers) [Example 7 - mixture of diastereomers, ethyl 3-{4-[(1-methylcyclobutyl)carbamoyl]piperidin-1-yl}-6-azabicyclo[3.2.1]octane-6-carboxylate]	> 20000	10	447		55		> 20000	4
